Among the data in patent US8362023B2, “Pyrazolo pyrimidines” (Hoffmann-La Roche Inc., priority 2011, dated 2013) are IC50 and EC50 values, retold here.

The target in one assay is T1, Human DYRK1A (Homo sapiens, UniProt Q13627).
T1 construct: purchased Invitrogen PV3997
The experiment in a line: DYRK1A Kinase TR-FRET (IMAP-Tb) Assay. As to conditions: TR-FRET (IMAP-Tb); ATP 70 μM; 37° C. for 60 minutes; averages of multiple runs; read-out: Enzyme IC50 (μM) DYRK1A. Type of assay: biochemical. The text has this: DYRK1A Kinase TR-FRET (IMAP-Tb) Assay
The kinase TR-FRET (IMAP-Tb) assay uses a fluorescence labeled substrate peptide in the kinase reaction. Upon phosphorylation by the kinase, phosphopeptide is produced, which will be detected by the binding solution provided in IMAP TR-FRET binding kit. After the completion of the kinase reaction, the reaction will be stopped by adding the binding solution containing terbium tracer. This tracer is immobilized on the surface of the IMAP beads, which also contain metal ions on the beads that bind to the phospho-groups of the products. Thus the phosphorylated product of the reaction can enter into close proximity to the tracer, producing resonance energy transfer. Due to the long lifetime of terbium (Tb) fluorescence the detection can be run in time resolved mode, which virtually eliminates fluorescence interference from assay components or compounds.
The TR-FRET signal measurement from this assay, given as an IC50 measurement, is a measure of a test compound's ability to interfere with the phosphorylation of the peptide substrate, that is it inhibits the phosphorylation of the substrate peptide by DYRK1A, and is thus a measure of the test compound's ability to inhibit the activity of DYRK1A.
Materials and Reagents • 1. Human DYRK1A: from Invitrogen. Part #PV3997 • 2. Substrate Peptide: […] • 3. IMAP TR-FRET IPP Explorer Kit: from Molecular Devices. Part #R8157 • 4. Kinase Assay Buffer (KAB): 10 mM HEPES pH 7.0, 50 mM NaCl, 5 mM MgCl2, 1 mM DTT, 1 mM NaVO4, 200 ug/mL BSA (0.02%) • 5. Assay Plate: Remp polypropylene clear 384-well microplate. […] Detection Plate: Costa black 384-well microplate.
Assay Procedure: this Assay was Performed as Follows: • 1. Transfer 1.5 μL of 20× compound solution to each well of an assay plate. • 2. Add to each well 22.5 μL of KAB Buffer. • 3. Add to each well 3 μL of the solution of DYRK1A and ATP. […] Add to each well 3 μL of the substrate peptide. The assay concentration is 1.0 μM • 5. Incubate the assay plates at 37° C. for 60 minutes. • 6. Add 18 μL of Detection Solution (1:800 diluted Progress bead stock, 1:400 diluted Tb stock, 80% Buffer A, and 20% Buffer B) into each well of detection plates. • 7. Transfer 6 μL of assay solution from the assay plate to the detection plate. • 8. Shake detection plates for 30 minutes. • 9. Read plates in Envision with wavelength set at excitation 340 nm for Tb, emission 490 nm, and […] 520 nm. • 10.

Assay [1] has as its system SW620 human colon cancer cells. Put plainly: SW620 Cell Viability Assay. In kind it is cell-based. Conditions: SW-620, 96 h, CellTiter-Glo Luminescent Cell Viability Assay, 4 days incubation, read-out: Cellular EC50 (μM) SW620. Here is the method:
SW620 Cell Viability Assay
1. Cell Plate Preparation: SW620 human colon cancer cells (known to express DYRK1B), obtained from ATCC, were seeded into 96-well plates at 3×10^3 cells/well in 50 μL of media. • Harvested the required number of cells (counts & viability determined by Guava Viacount). • Centrifuge cells to pellet and removed supernant. • Resuspended in growth media (50 μL/well) & pipetted thoroughly to break up clumps. • Setup for ˜100 wells/plate, therefore, VT=5 mL/plate @ […].
1A. Some cells (S—) were allowed to attach for 24 hrs, serum starved for 48 hrs, and then followed with test compound treatments.
Test compound solution were prepared in regular corresponding media supplemented with serum.
2. Test compound Preparation: Drugs were solubilized in either DMSO or media and prepared at various stock concentrations. • All compounds were incubated at 37° C. for 30 minutes and vortexed. • (5 mM stocks of test compound were prepared for non-soluble test compounds)
3. Test compound Plate Preparation: • The 10 mM test compound stock was diluted to a concentration of 100× the final Cmax concentration. • Then the test compound stock is diluted 50-fold in media and/or second test compound for a final Cmax concentration in the test compound plate. • The Cmax in the test compound plate (2% DMSO) is 2-fold higher than the final Cmax in the cell plate (60 μl, titrations were 1:3).
4. Viability Assay: This assay was performed as follows: • Transfer 50 μL of test compound solution per well from the test compound plate onto the cell plate prepared in Step #1. • Mix the plate with treated cells by pipetting up and down three times with 200 μL multi-channel pipette. • Incubate the cells in 5% CO2 incubator @ 37° C. for 4 days. • Run the CellTiter-Glo™ Luminescent Cell Viability Assay.
The results of this assay, given as EC50 values, indicate the concentration of test compound that inhibits tumor cell proliferation by 50%.
In general terms: In ATP-based viability assays light output follows the ATP content of the culture.

For a further assay, the target named is T2, Human DYRK1B (Homo sapiens, UniProt Q9Y463).
T2 construct: purchased Invitrogen PR8350B (former PV4649)
T2 sequence (Q9Y463 whole entry): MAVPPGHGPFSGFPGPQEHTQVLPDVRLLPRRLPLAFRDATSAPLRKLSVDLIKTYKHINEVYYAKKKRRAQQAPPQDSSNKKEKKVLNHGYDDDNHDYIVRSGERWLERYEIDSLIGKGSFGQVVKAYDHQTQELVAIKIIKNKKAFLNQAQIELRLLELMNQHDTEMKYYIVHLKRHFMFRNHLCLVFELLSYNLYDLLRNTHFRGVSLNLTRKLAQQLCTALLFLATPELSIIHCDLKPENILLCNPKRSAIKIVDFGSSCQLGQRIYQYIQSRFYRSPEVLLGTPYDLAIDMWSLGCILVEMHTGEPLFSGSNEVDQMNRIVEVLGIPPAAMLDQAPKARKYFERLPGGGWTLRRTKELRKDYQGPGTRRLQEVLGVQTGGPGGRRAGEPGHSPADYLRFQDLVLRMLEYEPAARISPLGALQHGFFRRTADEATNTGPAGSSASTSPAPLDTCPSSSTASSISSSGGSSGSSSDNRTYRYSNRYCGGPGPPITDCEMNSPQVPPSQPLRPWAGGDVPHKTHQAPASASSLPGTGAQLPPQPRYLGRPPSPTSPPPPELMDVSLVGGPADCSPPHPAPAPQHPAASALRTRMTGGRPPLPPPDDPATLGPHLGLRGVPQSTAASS
The experiment in a line: DYRK1B Kinase TR-FRET (IMAP-Tb) Assay. In kind it is biochemical. Conditions: TR-FRET (IMAP-Tb); ATP 70 μM; 37° C. for 60 minutes; averages of multiple runs; read-out: Enzyme IC50 (μM) DYRK1B. The text has this: DYRK1B Kinase TR-FRET (IMAP-Tb) Assay Assay Principle The kinase TR-FRET (IMAP-Tb) assay uses a fluorescence labeled substrate peptide in the kinase reaction. Upon phosphorylation by the kinase, phosphopeptide is produced, which will be detected by the binding solution provided in IMAP TR-FRET binding kit. After the completion of the kinase reaction, the reaction will be stopped by adding the binding solution containing terbium tracer. This tracer is immobilized on the surface of the IMAP beads, which also contain metal ions on the beads that bind to the phospho-groups of the products. Thus the phosphorylated product of the reaction can enter into close proximity to the tracer, producing resonance energy transfer. Due to the long lifetime of terbium (Tb) fluorescence the detection can be run in time resolved mode, which virtually eliminates fluorescence interference from assay components or compounds. The TR-FRET signal measurement from this assay, given as an IC50 measurement, is a measure of a test compound's ability to interfere with the phosphorylation of the peptide substrate, that is it inhibits the phosphorylation of the substrate peptide by DYRK1B, and is thus a measure of the test compound's ability to inhibit the activity of DYRK1B. IC50 is the amount of test compound that inhibits 50% of the activity of DYRK1B in this assay. In some cases where the IC50 was not determined, then the % inhibition at 10 μM test compound concentration may be reported. Materials and Reagents • 1. Human DYRK1B: from Invitrogen. Part #PR8350B (former PV4649) • 2. Substrate Peptide: in-house synthesized: RRRFRPASPLRGPPK • 3. IMAP TR-FRET IPP Explorer Kit: from Molecular Devices. Part #R8157 • 4. Kinase Assay Buffer (KAB): 10 mM HEPES pH 7.0, 50 mM NaCl, 5 mM MgCl2, 1 mM DTT, 1 mM NaVO4, 200 μg/mL BSA (0.02%) • 5. Assay Plate: Remp polypropylene clear 384-well microplate. Cat#23490-102 • 6. Detection Plate: Costa black 384-well microplate. Cat #3710 Assay Procedure: this Assay was Performed as Follows: • 1. Transfer 1.5 μL of 20× compound solution to each well of an assay plate. • 2. Add to each well 22.5 μL of KAB Buffer. • 3. Add to each well 3 μL of the solution of DYRK1B and ATP. […] Add to each well 3 μL of the substrate peptide. The assay concentration is 1.0 μM • 5. Incubate the assay plates at 37° C. for 60 minutes. • 6. Add 18 μL of Detection Solution (1:800 diluted Progress bead stock, 1:400 diluted Tb stock, 80% Buffer A, and 20% Buffer B) into each well of detection plates. • 7. Transfer 6 μL of assay solution from the assay plate to the detection plate. • 8. Shake detection plates for 30 minutes. • 9. Read plates in Envision with wavelength set at excitation 340 nm for Tb, emission 490 nm, and […] 520 nm. • 10. Calculation: TR-FRET Signal=(Reading at […]/Reading at 490 nM)×2000000

Structures can show the parent of a compound that is named as a salt. Where only a bound is given, the exact number is not on record here.

In general, IC50 refers to the concentration at which inhibition is half-maximal. One may read the EC50 as the concentration needed to bring the measured effect to its halfway point. Consider `N[C@H]1CC[C@H](Nc2ncc3c(-c4cccc(NCc5ccccc5)n4)n[nH]c3n2)CC1` [Example 49, N-[3-(6-Benzylamino-pyridin-2-yl)-1H-pyrazolo[3,4-d]pyrimidin-6-yl]-cyclohexane-1,4-diamine], for which the IC50 was found to be 0.0124 µM at Human DYRK1A and 0.101 µM on Human DYRK1B. In addition, the concentration for a half-maximal effect (EC50) in assay [1] came out at 1.71 µM.
Regarding `Clc1ccccc1CNc1nccc(-c2n[nH]c3nc(NCCN4CCOCC4)ncc23)n1` [Example 63, {3-[2-(2-Chloro-benzylamino)-pyrimidin-4-yl]-1H-pyrazolo[3,4-d]pyrimidin-6-yl}-(2-morpholin-4-yl-ethyl)-amine; hydrochloride], the IC50 worked out at 0.0371 µM at Human DYRK1A and 0.0671 µM at Human DYRK1B. Besides, in assay [1], the EC50 was found to be 0.9 µM.
The like results for `NCC(Nc1nccc(-c2n[nH]c3nc(NCCN4CCOCC4)ncc23)n1)c1ccsc1` (stereo not drawn) [Example 82, N1-{4-[6-(2-Morpholin-4-yl-ethylamino)-1H-pyrazolo[3,4-d]pyrimidin-3-yl]-pyrimidin-2-yl}-1-thiophen-3-yl-ethane-1,2-diamine; hydrochloride] were, in that order, 0.005 µM, 0.012 µM and 0.27 µM.
On to `N[C@H]1CC[C@H](Nc2ncc3c(-c4cccc(NCc5ccc(Cl)cc5)c4)n[nH]c3n2)CC1` [Example 55, N-{3-[3-(4-Chloro-benzylamino)-phenyl]-1H-pyrazolo[3,4-d]pyrimidin-6-yl}-cyclohexane-1,4-diamine], for which the values for the IC50 on Human DYRK1A and at Human DYRK1B were 0.502 µM and 0.181 µM, respectively. In addition, the EC50 in assay [1] came to 1.85 µM.
Take `N[C@H]1CC[C@H](Nc2ncc3c(-c4cccc(NCc5ccccc5Cl)c4)n[nH]c3n2)CC1` [Example 56, N-{3-[3-(2-Chloro-benzylamino)-phenyl]-1H-pyrazolo[3,4-d]pyrimidin-6-yl}-cyclohexane-1,4-diamine]: the IC50 at Human DYRK1A was 0.346 µM; on Human DYRK1B, 0.194 µM. Further, the EC50 in assay [1] is 4.1 µM.
As for `Clc1ccccc1CNc1cccc(-c2n[nH]c3nc(NCCN4CCOCC4)ncc23)c1` [Example 57, {3-[3-(2-Chloro-benzylamino)-phenyl]-1H-pyrazolo[3,4-d]pyrimidin-6-yl}-(2-morpholin-4-yl-ethyl)-amine], the IC50 on Human DYRK1A was found to be 2.62 µM; at Human DYRK1B it was 1.55 µM. Further, the EC50 in assay [1] is over 10 µM.
On to `Clc1ccc(CNc2nccc(-c3n[nH]c4nc(NCCN5CCOCC5)ncc34)n2)cc1` [Example 64, {3-[2-(4-Chloro-benzylamino)-pyrimidin-4-yl]-1H-pyrazolo[3,4-d]pyrimidin-6-yl}-(2-morpholin-4-yl-ethyl)-amine; hydrochloride], for which the results for the IC50 at Human DYRK1A and at Human DYRK1B were 0.242 µM and 0.353 µM, respectively. For the same compound, the EC50 in assay [1] is over 10 µM.
Take `c1cc(NCc2ccsc2)nc(-c2n[nH]c3nc(NCCN4CCOCC4)ncc23)c1` [Example 60, (2-Morpholin-4-yl-ethyl)-(3-{6-[(thiophen-3-ylmethyl)-amino]-pyridin-2-yl}-1H-pyrazolo[3,4-d]pyrimidin-6-yl)-amine]: the IC50 at Human DYRK1A stood at 0.785 µM; on Human DYRK1B, 0.234 µM. Besides, in assay [1], the EC50 is over 10 µM.
On to `NCC(Nc1nccc(-c2n[nH]c3nc(N[C@H]4CC[C@H](N)CC4)ncc23)n1)c1cccc(Cl)c1` (stereo partly drawn) [Example 78, N-(3-{2-[2-Amino-1-(3-chloro-phenyl)-ethylamino]-pyrimidin-4-yl}-1H-pyrazolo[3,4-d]pyrimidin-6-yl)-cyclohexane-1,4-diamine; hydrochloride], for which the IC50 on Human DYRK1A is 0.0046 µM; at Human DYRK1B, under 0.0046 µM. Further, the EC50 in assay [1] is 0.7 µM.
On to `c1cc(-c2n[nH]c3nc(NCCN4CCOCC4)ncc23)nc(NCc2ccsc2)n1` [Example 77, (2-Morpholin-4-yl-ethyl)-(3-{2-[(thiophen-3-ylmethyl)-amino]-pyrimidin-4-yl}-1H-pyrazolo[3,4-d]pyrimidin-6-yl)-amine; hydrochloride], for which the half-inhibitory concentration (IC50) was found to be 0.0129 µM on Human DYRK1A and 0.04 µM on Human DYRK1B. Besides, in assay [1], the EC50 was found to be 5.99 µM.
With `Clc1cccc(CNc2nccc(-c3n[nH]c4nc(NCCN5CCOCC5)ncc34)n2)c1` [Example 62, {3-[2-(3-Chloro-benzylamino)-pyrimidin-4-yl]-1H-pyrazolo[3,4-d]pyrimidin-6-yl}-(2-morpholin-4-yl-ethyl)-amine; hydrochloride], the 50% inhibitory concentration (IC50) on Human DYRK1A is 0.0384 µM; at Human DYRK1B it was 0.0586 µM. Also, the EC50 in assay [1] was over 10 µM.
